In US20260240852A1, “Use of Oral JAK Kinase Inhibitors to Treat Lichen Planus” (Mayo Foundation for Medical Education and Research, priority 2023, published 2026):
“And” between values parts separate entries of the source, which are not always exact repeats. Identical values can stand only once.

How the values were obtained:
Type in all cases: in vivo, human
[1] = tested on: patients with biopsy-proven cutaneous LP; experiment: Open-label, single-arm phase 2 trial of oral baricitinib in cutaneous lichen planus: clinical efficacy
Description: A clinical study was conducted in which 12 patients with biopsy-proven LP were trialed on oral baricitinib at a daily dose of 2 mg for 16 weeks. Other inclusionary criteria included having at least 4 lesions of LP at baseline. The mean age of participants was 63.6 years. The vast majority were female and identified as Caucasian. A quarter were under-represented minorities. The mean duration of disease for all patients was 2.2 years. Five of the 12 participants had hypertrophic LP, and 11 were refractory to prior therapy. All but one patient had previously trialed topical steroids. Almost half (41.7%) had failed oral or IM steroids.
The primary outcome of this study was PGA at week 16, with treatment response defined as greater than 50% improvement with a PGA grade of 0 to 3. Non-responsive was defined as PGA 4 and 5. Secondary endpoints included changes from baseline to week 16 in mCAILS, pruritus scores, Skindex-16, BSA, and total lesion count.
Trial Design. A single-arm, open-label, phase 2, […] trial was conducted at Mayo Clinic, Arizona (ClinicalTrials.gov identifier NCT05188521). The Mayo Clinic Institutional Review Board approved the study (IRB 21-003075), and all patients provided written informed consent. Twelve patients with biopsy-proven cutaneous LP were administered oral baricitinib 2 mg once daily for 16-weeks. The primary endpoint was an overall response by Physician Global Assessment (PGA) of skin at week 16, with treatment response defined as PGA 0 to 3 (with ≥50% score reduction). Secondary outcomes were changes in mCAILS, total body lesion count, affected BSA, pruritus numeric rating scale (NRS), pruritus verbal rating scale (VRS), pruritus visual analog scale (VAS), pain NRS, and Skindex-16. Patients were evaluated at baseline (week 0) and weeks 2, 4, 8, 12, and 16. […] Complete responders at week 16 were reassessed at week 20 and partial responders at week 16 were reassessed at week 32, after an off-therapy period of 4 weeks, respectively.
(§1) Assessments of treatment efficacy, adverse events (AEs), and QoL were completed at each study visit. All lesions were annotated, photographed, and scored using the mCAILS criteria. 16 All clinical assessments were performed by the principal investigator and co-investigators (ARM, MRP, SZ) with questionable lesions scored by 2 investigators. The revised National Cancer Institute Common Terminology Criteria for Adverse Events version 5.0 was used for AE reporting. Due to travel issues, one patient withdrew from the study after week 8. An intention-to-treat (ITT) analysis was used with the patient's last observation to impute week 16 data.
Eligibility Criteria. Patients aged ≥18 years with biopsy-proven cutaneous LP were eligible for the trial. Both treatment-naïve and treatment-refractory disease were included. Key exclusion criteria included predominantly non-cutaneous variants of LP, active infections, and other active inflammatory cutaneous conditions.
Statistical Analysis. Patient demographics, clinical characteristics, and outcomes were summarized as mean, standard deviation, median, interquartile range for continuous variables, and frequency and percentages for categorical variables. Primary and secondary outcome differences between baseline and week 16 were compared using Wilcoxon signed rank test for continuous variables and McNemar's test for binary variables. One patient withdrew from the study after week 8, and this patient's last observation (week 8) was used to impute week 16 data in the ITT analysis.
Exact binomial method was used to calculate the treatment response rate at week 16 and its corresponding 95% confidence interval. All analyses were conducted with R version 4.1.2 (R Foundation for Statistical Computing, Vienna, Austria). The cut-off for statistical significance was set as 0.05.

[2] = Adverse event assessment in the baricitinib LP trial (CTCAE version 5.0)
Description: as §1

[3] = tested on: patients with biopsy-proven cutaneous LP; experiment: Open-label, single-arm phase 2 trial of oral baricitinib in cutaneous lichen planus: clinical efficacy; details: dose escalation, after 12 weeks of 4 mg daily, five patients
[4] = five dose-escalation patients at week 16 (after 2 mg daily), start of dose escalation
[5] = oral 2 mg once daily, baseline to week 16, ITT
[6] = oral 2 mg once daily, baseline to week 16, ITT, P 0.002
[7] = oral 2 mg once daily, baseline to week 16, ITT, P 0.003

Compound: CCS(=O)(=O)N1CC(CC#N)(n2cc(-c3ncnc4[nH]ccc34)cn2)C1 [baricitinib]
- Patients with PGA grade 1 [1, 4]: 80.0%
- Patients with PGA grade 4 [1, 4]: 20%
- Mean total body lesion count ([1]; oral 2 mg daily, by week 16, 146 at baseline (first report)): 8
- Treatment response (PGA), patients ([1]; oral 2 mg daily, week 1): 37.5%
- Treatment response (PGA), patients ([1]; oral 2 mg daily, week 12): 100%
- Patients with a PGA grade of 0 or 1 (completely clear and almost clear) ([1]; oral 2 mg daily, week 16 (primary endpoint), all but one patient): 90.9%
- BSA affected (%), Range, Difference [1, 5]: −9.8 to −0.1%
- Pain NRS, Range, Difference [1, 5]: −8.0 to 0.0
- Pruritus NRS, Range, Difference [1, 5]: −8.0 to −0.0
- Pruritus VAS, Range, Difference [1, 5]: −7.7 to 1.5
- Skindex-16 emotional, Range, Difference [1, 5]: −34.0 to 0.0
- Skindex-16 functional, Range, Difference [1, 5]: −15.0 to 0.0
- Skindex-16 overall, Range, Difference [1, 5]: −58.0 to 0.0
- Skindex-16 symptom, Range, Difference [1, 5]: −19.0 to 0.0
- Total Body Lesion Count, Range, Difference [1, 5]: −570.0 to −4.0
- mCAILS, Range, Difference [1, 5]: −14.6 to −5.0
- BSA affected (%), Mean (SD), Difference [1, 6]: −3.9 (2.9) %
- Total Body Lesion Count, Mean (SD), Difference [1, 6]: −134.8 (157.0)
- mCAILS, Mean (SD), Difference [1, 6]: −10.6 (2.9)
- Pruritus NRS, Mean (SD), Difference [1, 7]: −5.3 (2.6)
- Pruritus VAS, Mean (SD), Difference [1, 7]: −5.0 (2.6)
- Pain NRS, Mean (SD), Difference ([1]; oral 2 mg once daily, baseline to week 16, ITT, P 0.005): −5.6 (2.7)
- Skindex-16 overall, Mean (SD), Difference ([1]; oral 2 mg once daily, baseline to week 16, ITT, P 0.008): −37.3(18.3)
- Pain NRS4, patients achieving ([1]; oral 2 mg once daily, week 16): 66.7%
- Pruritus NRS improvement >4 from baseline (NRS4), patients achieving ([1]; oral 2 mg once daily, week 16): 75.0%
- PGA Non-responsive (n, %) ([1]; oral 2 mg once daily, week 16, ITT, 12 patients): 16.7%
- PGA Responsive (n, %) ([1]; oral 2 mg once daily, week 16, ITT, 12 patients, response = PGA 0 to 3 with ≥50% score reduction): 83.3%
- BSA affected (%), Mean (SD), Week 16 ([1]; oral 2 mg once daily, week 16, ITT, baseline 4.9 (3.7), P 0.002): 1.0% and 1.0 (2.5) %
- Skindex-16 functional, Mean (SD), Week 16 ([1]; oral 2 mg once daily, week 16, ITT, baseline 11.6 (10.2), P 0.012): 4.5 (9.0)
- mCAILS, Mean (SD), Week 16 ([1]; oral 2 mg once daily, week 16, ITT, baseline 12.3 (3.2), P 0.002): 1.7 (3.3)
- Skindex-16 symptom, Mean (SD), Week 16 ([1]; oral 2 mg once daily, week 16, ITT, baseline 16.4 (6.0), P 0.005): 3.7 (7.0)
- Skindex-16 emotional, Mean (SD), Week 16 ([1]; oral 2 mg once daily, week 16, ITT, baseline 29.9 (9.0), P 0.003): 9.0 (12.4)
- Skindex-16 overall, Mean (SD), Week 16 ([1]; oral 2 mg once daily, week 16, ITT, baseline 59.0 (22.1), P 0.008): 16.9 (28.7)
- Skindex-16 functional, Range, Week 16 ([1]; oral 2 mg once daily, week 16, ITT, baseline range 0.0-30.0): 0.0-30.0
- BSA affected (%), Range, Week 16 ([1]; oral 2 mg once daily, week 16, ITT, baseline range 0.1-12.0): 0.0-8.5%
- Pruritus NRS, Range, Week 16 ([1]; oral 2 mg once daily, week 16, ITT, baseline range 1.0-10.0): 0.0-10.0
- Pruritus VAS, Range, Week 16 ([1]; oral 2 mg once daily, week 16, ITT, baseline range 2.7-8.8): 0.0-9.0
- Pain NRS, Range, Week 16 ([1]; oral 2 mg once daily, week 16, ITT, baseline range 4.0-10.0): 0.0-10.0
- Skindex-16 symptom, Range, Week 16 ([1]; oral 2 mg once daily, week 16, ITT, baseline range 4.0-24.0): 0.0-24.0
- Total Body Lesion Count, Range, Week 16 ([1]; oral 2 mg once daily, week 16, ITT, baseline range 4.0-600.0): 0.0-117.0
- mCAILS, Range, Week 16 ([1]; oral 2 mg once daily, week 16, ITT, baseline range 7.0-18.6): 0.0-8.9
- Skindex-16 emotional, Range, Week 16 ([1]; oral 2 mg once daily, week 16, ITT, baseline range 17.0-42.0): 0.0-42.0
- Skindex-16 overall, Range, Week 16 ([1]; oral 2 mg once daily, week 16, ITT, baseline range 35.0-96.0): 0.0-96.0
- Overall Skindex-16 score, mean decrease from baseline to week 16 ([1]; oral 2 mg once daily, SD 18.3, p=0.008): 37.3
- Treatment response (PGA), patients ([1]; week 20, after 4 weeks of being off-therapy): 100%
- Total adverse events ([2]; 12 patients, oral baricitinib): 12
- AEs leading to discontinuation ([2]; in vivo): No AEs led to the discontinuation
- Serious adverse events ([2]; in vivo): Serious adverse events did not occur
- Adverse events related / probably related to the study drug ([2]; low neutrophil count (neutropenia), mild, not deemed serious): one and A single AE of neutropenia
- AEs that were mild ([2]; of 12 AEs): 58.3%
- AEs that were moderate ([2]; of 12 AEs): 25.0%
- Adverse events unrelated or unlikely to be related to baricitinib ([2]; of 12 AEs): 11
- Absolute neutrophil count of the drug-related AE ([2]; the one mild AE deemed probably related to the study drug): 7.8e+08 L⁻¹
- Patients almost clear (PGA grade 1) [3]: 20.0%
- Patients completely clear of disease (PGA grade 0) [3]: 60.0%
- Patients with slight improvement (PGA grade 4) [3]: 20.0%
